Tested on: NG108-15
Experiment: Mean percent neurite outgrowth (cells with neurites longer than cell body/total cells) was determined in NG108-15 cells after 4 hr incubation at 35 uM
Type: functional, Mus musculus x Rattus norvegicus

## C[C@@H](N)[C@H]1CC[C@H](C(=O)Nc2ccncc2)CC1.Cl.Cl
  Activity: 82%

## C[C@@H](N)C1CCC(C(=O)Nc2ccncc2)CC1.Cl.Cl (stereo partly specified)
  Activity: 68%

## CCCCCCCC[C@@H](N)C1CCC(C(=O)Nc2ccncc2)CC1.Cl.Cl (stereo partly specified)
  Activity: 0%

## C[C@H](N)C1CCC(C(=O)Nc2ccncc2)CC1.Cl.Cl (stereo partly specified)
  Activity: 70%

## CCC[C@H](N)C1CCC(C(=O)Nc2ccncc2)CC1.Cl.Cl (stereo partly specified)
  Activity: 23%

## CCC[C@@H](N)C1CCC(C(=O)Nc2ccncc2)CC1.Cl.Cl (single isomer, unassigned; (+))
  Activity: 48%
